From patent publication US20050096327A1, “Novel norepinephrine reuptake inhibitors for the treatment of central nervous system disorders” (priority 2003, published 2005) come the findings set out here.

Data set [1] has as its target T1, human norepinephrine transporter (Homo sapiens, UniProt P23975).
T1 construct: host or cells: HEK-293
Briefly: hNET receptor binding ([125I]-RTI-55, membranes of transfected HEK-293 cells). The following applies: 50 pM [125I]-RTI-55, 90 min room temperature; IC50 converted by Cheng-Prusoff. The gist of the method:
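Competition binding on membranes from HEK-293 cells transfected with human NET, using 50 pM [125I]-RTI-55 in Krebs-HEPES pH 7.4, drug 10^−5 to 10^−12 M in duplicate, 90 min at room temperature, filtration. Nonspecific binding defined with 10 μM desipramine; IC50 converted to Ki by Cheng-Prusoff.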

Data set [2] has as its target T2, human serotonin transporter (Homo sapiens, UniProt P31645).
T2 construct: host or cells: HEK-293
Briefly: hSERT receptor binding ([125I]-RTI-55, membranes of transfected HEK-293 cells). The following applies: 50 pM [125I]-RTI-55, 90 min room temperature; IC50 converted by Cheng-Prusoff. As for the experimental part:
Cell pastes of HEK-293 cells transfected with the human serotonin transporter were supplied by the Pfizer Ann Arbor Protein Expression and Production Group. Pellets were resuspended in 400 to 700 mL of Krebs-HEPES assay buffer (25 mM HEPES, 122 mM NaCl, 3 mM KCl, 1.2 mM MgSO4, 1.3 mM CaCl2, and 11 mM glucose, pH 7.4) with a Polytron homogenizer at Setting 7 for 30 seconds. Aliquots of membranes (˜2.5 mg/mL protein) were stored in liquid nitrogen until used.
Assays were set up in FlashPlates pre-coated with 0.1% PEI in a total volume of 250 μL containing: drug (10^−5M to 10^−12M), cell membranes, and 50 pM [^125I]-RTI-55 (Perkin Elmer, NEX-272; specific activity 2200 Ci/mmol). The reaction was incubated and gently agitated for 90 minutes at room temperature, and terminated by removal of assay volume. Plates were covered, and bound [^125I]-RTI-55 was determined using a Wallac Trilux Beta Plate Counter. Test compounds were run in duplicate, and specific binding was defined as the difference between binding in the presence and absence of 10 μM citalopram.
Excel and GraphPad Prism software were used for data calculation and analysis. IC50 values were converted to Ki values using the Cheng-Prusoff equation. The Ki values for the hSERT are reported below in Table 1.

SMILES strings stand for the structures. Where a name gives a salt, the structure may show the parent alone. Bounds are passed on as bounds.

T2 sequence (P31645 whole entry): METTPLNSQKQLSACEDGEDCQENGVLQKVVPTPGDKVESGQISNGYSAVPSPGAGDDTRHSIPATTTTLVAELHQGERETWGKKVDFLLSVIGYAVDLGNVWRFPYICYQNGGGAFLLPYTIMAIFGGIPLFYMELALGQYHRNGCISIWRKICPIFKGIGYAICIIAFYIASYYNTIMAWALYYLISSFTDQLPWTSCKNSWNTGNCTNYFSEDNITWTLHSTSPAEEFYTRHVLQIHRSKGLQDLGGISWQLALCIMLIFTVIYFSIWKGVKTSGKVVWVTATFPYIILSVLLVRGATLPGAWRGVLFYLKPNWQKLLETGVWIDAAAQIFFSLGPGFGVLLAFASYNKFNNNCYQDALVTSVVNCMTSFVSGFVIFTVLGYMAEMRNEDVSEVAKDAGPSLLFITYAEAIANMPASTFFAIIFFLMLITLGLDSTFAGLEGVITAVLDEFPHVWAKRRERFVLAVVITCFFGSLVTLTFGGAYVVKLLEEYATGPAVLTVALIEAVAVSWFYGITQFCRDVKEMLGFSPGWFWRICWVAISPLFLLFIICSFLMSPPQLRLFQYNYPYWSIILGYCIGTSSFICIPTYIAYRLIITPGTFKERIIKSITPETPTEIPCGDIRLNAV
T1 sequence (P23975 whole entry): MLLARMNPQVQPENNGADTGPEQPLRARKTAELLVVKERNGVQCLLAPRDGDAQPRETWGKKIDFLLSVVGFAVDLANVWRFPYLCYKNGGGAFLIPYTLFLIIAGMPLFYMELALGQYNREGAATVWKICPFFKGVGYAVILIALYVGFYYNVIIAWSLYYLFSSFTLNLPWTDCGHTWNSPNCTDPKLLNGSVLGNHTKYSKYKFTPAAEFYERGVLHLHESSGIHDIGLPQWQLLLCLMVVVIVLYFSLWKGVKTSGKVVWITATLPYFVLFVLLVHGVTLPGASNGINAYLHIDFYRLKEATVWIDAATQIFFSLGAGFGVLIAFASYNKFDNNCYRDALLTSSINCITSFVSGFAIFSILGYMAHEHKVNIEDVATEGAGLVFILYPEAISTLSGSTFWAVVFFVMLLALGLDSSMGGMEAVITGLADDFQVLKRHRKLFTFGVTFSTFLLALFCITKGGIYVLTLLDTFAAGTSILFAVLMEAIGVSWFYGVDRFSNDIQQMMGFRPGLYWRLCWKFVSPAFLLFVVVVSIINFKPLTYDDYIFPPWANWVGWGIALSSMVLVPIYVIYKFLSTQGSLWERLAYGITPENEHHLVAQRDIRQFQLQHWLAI

In general, Ki refers to a measure of affinity in units of concentration, obtained from inhibition or displacement. Read a low Ki as a stronger hold on the target. As a reminder, the melting point is the temperature, or range, at which the solid turns liquid. Compound `Cl.N[C@H]1CCN(c2nc(-c3ccccc3)c3ccccc3n2)C1` [Example 14, (S)-(+)-1-(4-Phenyl-quinazolin-2-yl)-pyrrolidin-3-ylamine hydrochloride] showed a melting point of 274 to 275 °C. For the same compound, affinity in data set [1] was put at a Ki of 3.7 nM.

Take `c1ccc(-c2nc(N3C4CCC3CNC4)nc3ccccc23)cc1` [Example 56, 2-(3,8-Diaza-bicyclo[3.2.1]oct-8-yl)-4-phenyl-quinazoline]: the melting point is 278 to 280 °C. In data set [1], this compound gave a Ki of 5 nM.

In the case of `Cl.Fc1ccccc1-c1nc(N2CC3CNCC3C2)nc2ccccc12` (stereo not shown) [Example 39, 4-(2-Fluoro-phenyl)-2-(hexahydro-pyrrolo[3,4-c]pyrrol-2-yl)-quinazoline hydrochloride], the melting point is 270 to 278 °C. Also, the Ki in data set [1] was found to be 41 nM.

Compound `CN1CCN(c2nc(-c3cccc(F)c3)c3ccccc3n2)CC1` [Example 26, 4-(3-Fluoro-phenyl)-2-(4-methyl-piperazin-1-yl)-quinazoline] showed a melting point of 134 to 135 °C. In addition, the inhibition constant (Ki) in data set [1] was 34.9 nM.

`Fc1cccc(F)c1-c1nc(N2CCNCC2)nc2ccccc12` (as salt: hydrochloride) [Example 29, 4-(2,6-Difluoro-phenyl)-2-piperazin-4-yl-quinazoline hydrochloride] returned a melting point of 295 to 297 °C.

With `NCCCNc1nc(-c2cccc(F)c2F)c2ccccc2n1` [Example 159, N1-[4-(2,3-Difluoro-phenyl)-quinazolin-2-yl]-propane-1,3-diamine], the Ki in data set [2] is above 10000 nM; in data set [1], 123 nM.

In the case of `Fc1ccc2c(-c3ccccc3)nc(N3CCNCC3)nc2c1` [Example 97, 7-Fluoro-4-phenyl-2-piperazin-1-yl-quinazoline], the figures for the Ki in data set [2] and in data set [1] were 49.6 nM and 13.8 nM, respectively.

`Fc1ccc(-c2nc(NC3CNC3)nc3cc(F)ccc23)c(F)c1` [Example 141, Azetidin-3-yl-[4-(2,4-difluoro-phenyl)-7-fluoro-quinazolin-2-yl]-amine]: the figures for the Ki in data set [2] and in data set [1] were 1920 nM and 102 nM, respectively.

As to `C[C@H]1CNCCN1c1nc(-c2cccc(F)c2F)c2ccccc2n1` [Example 88, S-4-(2,3-Difluoro-phenyl)-2-(2-methyl-piperazin-1-yl)-quinazoline], the Ki was determined as 69.3 nM in data set [2] and 18.9 nM in data set [1].

On to `Fc1ccc2c(-c3ccc(F)c(F)c3)nc(N3CCNCC3)nc2c1` [Example 119, 4-(3,4-Difluoro-phenyl)-7-fluoro-2-piperazin-1-yl-quinazoline], for which the Ki in data set [2] was determined as 22.7 nM; in data set [1] it was 7.3 nM.

Regarding `C[C@@H]1CN(c2nc(-c3ccccc3)c3ccccc3n2)CCN1` (as salt: salt) [Example 31, (R)-(+)-2-(3-Methyl-piperazin-1-yl)-4-phenyl-quinazoline], the melting point lay in the range of 241 to 242 °C.

For the compound `CNC1CCN(c2nc(-c3c(F)cccc3F)c3ccccc3n2)C1` (stereo not shown) [Example 149, {1-[4-(2,6-Difluoro-phenyl)-quinazolin-2-yl)-pyrrolidin-3-yl}-methyl-amine], the values for the Ki in data set [2] and in data set [1] were 1620 nM and 135 nM, respectively.

As for `C[C@H]1CNCCN1c1nc(-c2cccc(F)c2F)c2ccc(F)cc2n1` [Example 124, S-4-(2,3-Difluoro-phenyl)-7-fluoro-2-(2-methyl-piperazin-1-yl)-quinazoline], the inhibitory constant (Ki) turned out to be 28.1 nM in data set [2] and 21.6 nM in data set [1].

`Fc1cccc(F)c1-c1nc(NC2CCNCC2)nc2ccccc12` [Example 148, [4-(2,6-Difluoro-phenyl)-quinazolin-2-yl]-piperidin-4-yl-amine]: the inhibition constant (Ki) in data set [2] is 4060 nM; in data set [1], 267 nM.

Turning to `Clc1ccc2nc(N3CCNCC3)nc(-c3ccccc3)c2c1` [Example 128, 6-Chloro-4-phenyl-2-piperazin-1-yl-quinazoline], the results for the Ki in data set [2] and in data set [1] were 11.4 nM and 35.5 nM, respectively.

For the compound `Clc1ccc2c(-c3ccccc3)nc(N3CCNCC3)nc2c1` [Example 89, 7-Chloro-4-phenyl-2-piperazin-1-yl-quinazoline], the Ki came to 110 nM in data set [2] and 49 nM in data set [1].

Regarding `Fc1ccc(-c2nc(N3CCNCC3)nc3ccc(F)cc23)c(F)c1` [Example 122, 4-(2,4-Difluoro-phenyl)-6-fluoro-2-piperazin-1-yl-quinazoline], the Ki came to 15.5 nM in data set [2] and 12.1 nM in data set [1].

Regarding `CNC1CCN(c2nc(-c3cccc(F)c3F)c3ccccc3n2)C1` (stereo not shown) [Example 157, {1-[4-(2,3-Difluoro-phenyl)-quinazolin-2-yl]-pyrrolidin-3-yl}-methyl-amine], the Ki in data set [2] was determined as 4250 nM; in data set [1], 148 nM.

In the case of `c1ccc(-c2nc(N3CC4CNCC4C3)nc3ccccc23)cc1` (stereo not shown) (as salt: salt) [Example 81, 2-(Hexahydro-pyrrolo[3,4-c]pyrrol-2-yl)-4-phenyl-quinazoline], the melting point is 267 to 270 °C.

Regarding `CC[C@H]1CNCCN1c1nc(-c2ccc(F)cc2F)c2ccccc2n1` [Example 165, S-4-(2,4-Difluoro-phenyl)-2-(2-ethyl-piperazin-1-yl)-quinazoline], the Ki amounted to 14.4 nM in data set [2] and 31 nM in data set [1].

On to `Fc1ccc(-c2nc(NC3CCNCC3)nc3ccccc23)c(F)c1` [Example 154, [4-(2,4-Difluoro-phenyl)-quinazolin-2-yl]-piperidin-4-yl-amine], for which the Ki in data set [2] was 5370 nM; in data set [1], 58.1 nM.

With `Fc1ccc2c(-c3ccccc3)nc(N3CCNCC3)nc2c1F` [Example 163, 7,8-Difluoro-4-phenyl-2-piperazin-1-yl-quinazoline], the inhibition constant Ki in data set [2] is 441 nM; in data set [1] it was 12.6 nM.

`Fc1ccccc1-c1nc(N2CCNCC2)nc2ccc(Cl)cc12` [Example 129, 4-(2-Fluoro-phenyl)-6-chloro-2-piperazin-1-yl-quinazoline]: the Ki in data set [2] is 8.4 nM; in data set [1], 25.6 nM.

On to `Fc1cc2nc(N3CCNCC3)nc(-c3cccc(F)c3F)c2cc1F` [Example 123, 4-(2,3-Difluoro-phenyl)-6,7-difluoro-2-piperazin-1-yl-quinazoline], for which the Ki in data set [2] was found to be 47.2 nM; in data set [1], 28.5 nM.

As for `C[C@H]1CNCCN1c1nc(-c2c(F)cccc2F)c2ccccc2n1` [Example 127, S-4-(2,6-Difluoro-phenyl)-2-(2-methyl-piperazin-1-yl)-quinazoline], the Ki in data set [2] worked out at 58.6 nM; in data set [1], 33.9 nM.

Regarding `Cl.c1ccc(-c2nc(C3CCCNC3)nc3ccccc23)cc1` (stereo not shown) (hydrate or solvate), the melting point was in the range of 231 to 232 °C.

For `Cc1ccc(F)cc1-c1nc(N2CCNCC2)nc2cc(F)ccc12` [Example 137, 7-Fluoro-4-(5-fluoro-2-methyl-phenyl)-2-piperazin-1-yl-quinazoline], the Ki was determined as 190 nM in data set [2] and 16.6 nM in data set [1].

With `Fc1ccc2c(-c3cccc(F)c3F)nc(N[C@@H]3CCNC3)nc2c1` [Example 116, R-[4-(2,3-Difluoro-phenyl)-7-fluoro-quinazolin-2-yl]-pyrrolidin-3-yl-amine], the Ki is 963 nM in data set [2] and 138 nM in data set [1].

As for `CN1CCN(c2nc(-c3ccc(F)c(F)c3)c3ccc(F)cc3n2)CC1` [Example 112, 4-(3,4-Difluoro-phenyl)-7-fluoro-2-(4-methyl-piperazin-1-yl)-quinazoline], the Ki in data set [2] came to 204 nM; in data set [1], 707 nM.

Compound `CN[C@H]1CCN(c2nc(-c3ccccc3F)c3ccccc3n2)C1` (as salt: hydrochloride) [Example 35, (S)-(+)-1-[4-(2-Fluoro-phenyl)-quinazolin-2-yl]-pyrrolidin-3-yl}-methyl-amine hydrochloride] had a melting point of 257 to 258 °C.

For `Fc1ccc2c(-c3c(F)cccc3F)nc(N[C@@H]3CCNC3)nc2c1` [Example 84, R-[4-(2,6-Difluoro-phenyl)-7-fluoro-quinazolin-2-yl]-pyrrolidin-3-yl-amine], the figures for the Ki in data set [2] and in data set [1] were 653 nM and 49.8 nM, respectively.

Consider `Fc1ccc2c(-c3c(F)cccc3F)nc(N3CCNCC3)nc2c1` [Example 98, 4-(2,6-Difluoro-phenyl)-7-fluoro-2-piperazin-1-yl-quinazoline], for which the results for the Ki in data set [2] and in data set [1] were 32 nM and 20 nM, respectively.

In the case of `Fc1ccc(-c2nc(N3CCNCC3)nc3ccccc23)c(Cl)c1` (as salt: salt) [Example 61, 4-(2-Chloro-4-fluoro-phenyl)-2-piperazin-1-yl-quinazoline], the melting point was in the range of 248 to 251 °C.

Turning to `Fc1ccc(-c2nc(N3CCNCC3)nc3cc(F)c(F)cc23)c(F)c1` [Example 147, 4-(2,4-Difluoro-phenyl)-6,7-difluoro-2-piperazin-1-yl-quinazoline], the inhibitory constant (Ki) in data set [2] is 25.6 nM; in data set [1] it was 28 nM.

Regarding `C[C@@H]1CNCCN1c1nc(-c2c(F)cccc2F)c2ccc(F)cc2n1` [Example 104, R-4-(2,6-Difluoro-phenyl)-7-fluoro-2-(2-methyl-piperazin-1-yl)-quinazoline], the Ki was determined as 27.6 nM in data set [2] and 36.4 nM in data set [1].
